Data published in publication PMC5490409, “Anti-Mycobacterial Evaluation of 7-Chloro-4-Aminoquinolines and Hologram Quantitative Structure–Activity Relationship (HQSAR) Modeling of Amino–Imino Tautomers” (Pharmaceuticals, 2017).
Converted amounts (≈) assume the structure as drawn. Where two headings read alike, the source gives them in different places.

Key:
[1] = test system: Mycobacterium tuberculosis wild-type H37Rv strain; details: cited from earlier work; for pMIC (pMICExp): –Log of MIC on M. tuberculosis
[2] = test system: Mycobacterium tuberculosis wild-type H37Rv strain (ATCC 27294); assay: microplate Alamar blue assay (MABA), anti-mycobacterial activity; assay type: cell-based
[3] = in vitro; details: mouse
[4] = test system: macrophage cell line J774 (ATCC TIB-67)
[5] = test system: MTB wild-type H37Rv strain; set-up: method as in PMID 15591164; details: cited from earlier work
[6] = test system: MTB MDR strains; details: cited from earlier work
[7] = Mosmann's MTT cell viability (cytotoxicity) assay; details: mouse
[8] = M. tuberculosis H37Rv, MABA, read-out: MIC
[9] = series D, –Log of MIC of Table 1, read-out: pMIC (pMICExp) (converted)

Clc1ccc2c(N/N=C/c3ccc(Br)cc3)ccnc2c1 [B05]
pMIC (pMICExp) ([1]; series B): 5.16

Clc1ccc2c(N/N=C/c3cccc(Br)c3)ccnc2c1 [B04]
pMIC (pMICExp) ([1]; series B): 5.06

Clc1ccc2c(N/N=C/c3ccc[nH]3)ccnc2c1 [C05]
pMIC (pMICExp) ([1]; series C): 4.94

COc1cc(/C=N/Nc2ccnc3cc(Cl)ccc23)cc(OC)c1OC [D08]
MIC [2, 8]: 16.8 µM (≈ 6.25 µg/mL)
MIC [2, 9]: 17 µM
viability at 48 h, 2.5 µg/mL [3]: 93%
viability at 48 h, 25 µg/mL [3]: 90%
viability at 48 h, 100 µg/mL [3]: 69%

COc1ccc(C=NNc2ccnc3cc(Cl)ccc23)c(Cl)c1O [D09]
MIC [2, 8]: 17.3 µM (≈ 6.27 µg/mL)
MIC [2, 9]: 16.2 µM
viability at 48 h, 2.5 µg/mL [3]: 80%
viability at 48 h, 25 µg/mL [3]: 55%
viability at 48 h, 100 µg/mL [3]: 48%

CNc1ccnc2cc(Cl)ccc12 [A09]
pMIC (pMICExp) ([1]; series A): 3.28

Clc1ccc2c(N/N=C/c3ccn[nH]3)ccnc2c1 [C06]
pMIC (pMICExp) ([1]; series C): 4.94

Clc1ccc2c(N/N=C/c3c(Cl)cccc3Cl)ccnc2c1 [D01]
MIC [2, 8]: 143 µM (≈ 50 µg/mL)
MIC [2, 9]: 141 µM
Cell Viability (%)/Dose (µg/mL) 2.5 [4]: did not show a significant cytotoxic profile
viability at 48 h, 2.5 µg/mL [3]: 100%
viability at 48 h, 25 µg/mL [3]: 90%
viability at 48 h, 100 µg/mL [3]: 86%

NCCCCCCCCNc1ccnc2cc(Cl)ccc12 [A07]
pMIC (pMICExp) ([1]; series A): 4.69

[N-]=[N+]=NCCNc1ccnc2cc(Cl)ccc12 [A02]
pMIC (pMICExp) ([1]; series A): 3.69

Oc1ccc(C=NNc2ccnc3cc(Cl)ccc23)cc1O [D03]
MIC [2, 8]: 319 µM (≈ 100 µg/mL)
MIC [2, 9]: 316 µM
viability at 48 h, 2.5 µg/mL [3]: 78%
viability at 48 h, 25 µg/mL [3]: 35%
viability at 48 h, 100 µg/mL [3]: 72%

CCCNCCNc1ccnc2cc(Cl)ccc12 [A03]
pMIC (pMICExp) ([1]; series A): 3.42

COc1ccc(/C=N/Nc2ccnc3cc(Cl)ccc23)cc1OC [D06]
MIC [2, 8]: 7.3 µM (≈ 2.5 µg/mL)
MIC [2, 9]: 7.24 µM
viability at 48 h, 2.5 µg/mL [3]: 65%
viability at 48 h, 25 µg/mL [3]: 8%
viability at 48 h, 100 µg/mL [3]: 20%

COc1nc2ccc(Br)cc2cc1[C@@H](c1ccccc1)[C@@](O)(CCN(C)C)c1cccc2ccccc12 [bedaquiline]
MIC [5]: ≤ 0.1 µM
MIC [6]: ≤ 0.5 µM

NCCCCCCCCCCNc1ccnc2cc(Cl)ccc12 [A08]
MIC ([1]; series A lead, H37Rv): 9.3 µM (≈ 3.11 µg/mL)
pMIC (pMICExp) ([1]; series A): 5.03

O=[N+]([O-])c1ccc(/C=N/Nc2ccnc3cc(Cl)ccc23)o1 [C01]
pMIC (pMICExp) ([1]; series C): 5.10

O=[N+]([O-])c1ccc(/C=N/Nc2ccnc3cc(Cl)ccc23)s1 [C03]
pMIC (pMICExp) ([1]; series C): 5.43

CC(C)Nc1ccnc2cc(Cl)ccc12 [A11]
pMIC (pMICExp) ([1]; series A): 3.64

CCCCNc1ccnc2cc(Cl)ccc12 [A12]
pMIC (pMICExp) ([1]; series A): 4.27

ClCCNc1ccnc2cc(Cl)ccc12 [A01]
pMIC (pMICExp) ([1]; series A): 4.29

Clc1ccc2c(NCCNc3ccccc3)ccnc2c1 [A05]
pMIC (pMICExp) ([1]; series A): 3.77

NCCCCCCNc1ccnc2cc(Cl)ccc12 [A06]
pMIC (pMICExp) ([1]; series A): 4.05

ClCCCNc1ccnc2cc(Cl)ccc12 [A13]
pMIC (pMICExp) ([1]; series A): 3.71

CC[C@@H](CO)NCCN[C@@H](CC)CO [EMB, ethambutol]
MIC [2, 8]: 15.3 µM (≈ 3.13 µg/mL)
viability at 48 h, 2.5 µg/mL [7]: 100%
viability at 48 h, 25 µg/mL [7]: 93%
viability at 48 h, 100 µg/mL [7]: 82%

CCCNc1ccnc2cc(Cl)ccc12 [A10]
pMIC (pMICExp) ([1]; series A): 3.64

COc1ccc(OC)c(/C=N/Nc2ccnc3cc(Cl)ccc23)c1 [D07]
MIC [2, 8]: 18.3 µM (≈ 6.25 µg/mL)
MIC ([2]; read-out: pMIC (pMICExp)): 18.2 µM (≈ 6.22 µg/mL)
viability at 48 h, 2.5 µg/mL [3]: 40%
viability at 48 h, 25 µg/mL [3]: 22%
viability at 48 h, 100 µg/mL [3]: 47%

Clc1ccc2c(N/N=C/c3ccco3)ccnc2c1 [C02]
pMIC (pMICExp) ([1]; series C): 4.94

Clc1ccc2c(N/N=C/c3ccccn3)ccnc2c1 [C07]
pMIC (pMICExp) ([1]; series C): 4.35

Oc1cccc(/C=N/Nc2ccnc3cc(Cl)ccc23)c1O [D02]
MIC [2, 8]: 79.7 µM (≈ 25 µg/mL)
MIC [2, 9]: 79.4 µM
viability at 48 h, 2.5 µg/mL [3]: 83%
viability at 48 h, 25 µg/mL [3]: 40%
viability at 48 h, 100 µg/mL [3]: 83%

Oc1ccc(O)c(/C=N/Nc2ccnc3cc(Cl)ccc23)c1 [D04]
MIC [2, 8]: 79.7 µM (≈ 25 µg/mL)
MIC [2, 9]: 79.4 µM
Cell Viability (%)/Dose (µg/mL) 2.5 [4]: did not show a significant cytotoxic profile
viability at 48 h, 2.5 µg/mL [3]: 100%
viability at 48 h, 25 µg/mL [3]: 100%
viability at 48 h, 100 µg/mL [3]: 70%

COc1cccc(/C=N/Nc2ccnc3cc(Cl)ccc23)c1OC [D05]
MIC [2, 8]: 7.3 µM (≈ 2.5 µg/mL)
MIC [2, 9]: 7.24 µM
Cell Viability (%)/Dose (µg/mL) 2.5 [4]: did not show a significant cytotoxic profile
viability at 48 h, 2.5 µg/mL [3]: 98%
viability at 48 h, 25 µg/mL [3]: 97%
viability at 48 h, 100 µg/mL [3]: 85%

Clc1ccc2c(N/N=C/c3cccs3)ccnc2c1 [C04]
pMIC (pMICExp) ([1]; series C): 4.96
